# ChEMBL document CHEMBL1743201, “Casarett and Doull's Toxicology The Basic Science of Poisons, 7th edition” (2008)
# Experiments:
# Type in all cases: ADME
# [1] = target: T1, Glutathione S-transferase Mu 1 (Homo sapiens, UniProt P09488); test: Substrates for human cytosolic glutathione transferase GSTM1
# T1 sequence (P09488 whole entry): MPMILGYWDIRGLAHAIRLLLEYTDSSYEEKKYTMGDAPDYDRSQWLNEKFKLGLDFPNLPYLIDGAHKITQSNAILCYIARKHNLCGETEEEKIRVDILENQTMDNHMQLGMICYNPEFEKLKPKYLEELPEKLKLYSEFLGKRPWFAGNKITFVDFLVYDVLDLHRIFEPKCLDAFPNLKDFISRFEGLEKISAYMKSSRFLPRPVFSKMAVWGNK
# [2] = target: T2, Glutathione S-transferase Mu 2 (Homo sapiens, UniProt P28161); test: Substrates for human cytosolic glutathione transferase GSTM2
# T2 sequence (P28161 whole entry): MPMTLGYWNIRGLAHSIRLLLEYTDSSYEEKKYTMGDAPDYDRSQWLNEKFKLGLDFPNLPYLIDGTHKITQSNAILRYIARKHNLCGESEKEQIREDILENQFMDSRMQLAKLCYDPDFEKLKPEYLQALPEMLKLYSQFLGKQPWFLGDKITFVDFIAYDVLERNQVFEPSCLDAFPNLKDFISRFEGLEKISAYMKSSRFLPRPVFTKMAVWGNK
# [3] = target: Glutathione S-transferase P (Homo sapiens, UniProt P09211); test: Substrates for human cytosolic glutathione transferase GSTP1
# Sequence of Glutathione S-transferase P (P09211 whole entry): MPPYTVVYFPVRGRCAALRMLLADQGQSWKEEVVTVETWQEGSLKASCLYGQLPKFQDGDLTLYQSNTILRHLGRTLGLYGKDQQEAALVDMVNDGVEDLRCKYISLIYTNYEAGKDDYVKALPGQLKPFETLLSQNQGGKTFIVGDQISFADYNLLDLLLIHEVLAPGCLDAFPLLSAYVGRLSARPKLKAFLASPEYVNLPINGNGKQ
# [4] = target: T3, UDP-glucuronosyltransferase 2B15 (Homo sapiens, UniProt P54855); test: Substrate of human UDP-glucuronosyltransferase UGT2B15
# T3 sequence (P54855 whole entry): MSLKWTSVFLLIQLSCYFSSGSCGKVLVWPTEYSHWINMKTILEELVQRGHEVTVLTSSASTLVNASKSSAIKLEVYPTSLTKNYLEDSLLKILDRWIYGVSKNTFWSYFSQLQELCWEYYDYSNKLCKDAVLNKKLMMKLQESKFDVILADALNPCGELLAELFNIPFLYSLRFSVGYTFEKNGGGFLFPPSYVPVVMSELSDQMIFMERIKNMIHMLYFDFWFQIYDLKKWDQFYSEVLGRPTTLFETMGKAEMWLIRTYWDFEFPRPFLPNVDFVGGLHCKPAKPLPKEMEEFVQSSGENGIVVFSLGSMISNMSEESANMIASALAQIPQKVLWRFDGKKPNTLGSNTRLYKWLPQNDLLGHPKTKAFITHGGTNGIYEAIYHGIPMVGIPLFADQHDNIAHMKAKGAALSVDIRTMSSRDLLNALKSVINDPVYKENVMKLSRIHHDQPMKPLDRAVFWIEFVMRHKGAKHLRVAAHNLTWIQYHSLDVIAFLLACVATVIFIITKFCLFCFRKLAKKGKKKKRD
# [5] = target: T4, Cytochrome P450 2C9 (Homo sapiens, UniProt P11712); test: Clinically relevant substrates of human liver microsomal P450 enzymes, isoform CYP2C9; conditions: microsomes
# T4 sequence (P11712 whole entry, canonical isoform): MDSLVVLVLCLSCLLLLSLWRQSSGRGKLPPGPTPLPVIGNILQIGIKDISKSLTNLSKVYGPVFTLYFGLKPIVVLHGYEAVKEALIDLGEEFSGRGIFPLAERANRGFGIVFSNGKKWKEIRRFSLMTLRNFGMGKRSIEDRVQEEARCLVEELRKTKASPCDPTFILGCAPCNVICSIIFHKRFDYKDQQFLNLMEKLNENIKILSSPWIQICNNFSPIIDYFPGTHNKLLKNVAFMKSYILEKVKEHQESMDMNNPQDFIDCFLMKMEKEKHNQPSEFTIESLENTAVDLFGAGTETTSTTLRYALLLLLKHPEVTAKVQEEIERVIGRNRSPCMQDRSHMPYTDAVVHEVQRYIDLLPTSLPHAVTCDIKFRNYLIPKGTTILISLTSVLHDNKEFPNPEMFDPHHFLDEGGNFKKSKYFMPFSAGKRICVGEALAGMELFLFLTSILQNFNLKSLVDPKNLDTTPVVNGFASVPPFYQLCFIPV
# [6] = target: T5, Glutathione S-transferase theta-1 (Homo sapiens, UniProt P30711); test: Substrates for human cytosolic glutathione transferase GSTT1
# T5 sequence (P30711 whole entry): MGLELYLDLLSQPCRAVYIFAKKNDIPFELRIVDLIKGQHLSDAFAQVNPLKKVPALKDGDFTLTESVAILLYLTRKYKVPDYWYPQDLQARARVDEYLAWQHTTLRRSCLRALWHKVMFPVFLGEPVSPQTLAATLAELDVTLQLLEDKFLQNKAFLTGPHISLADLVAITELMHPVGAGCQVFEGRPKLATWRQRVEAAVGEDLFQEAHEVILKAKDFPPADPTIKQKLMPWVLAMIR
# [7] = target: T6, Glutathione S-transferase A1 (Homo sapiens, UniProt P08263); test: Substrates for human cytosolic glutathione transferase GSTA1
# T6 sequence (P08263 whole entry): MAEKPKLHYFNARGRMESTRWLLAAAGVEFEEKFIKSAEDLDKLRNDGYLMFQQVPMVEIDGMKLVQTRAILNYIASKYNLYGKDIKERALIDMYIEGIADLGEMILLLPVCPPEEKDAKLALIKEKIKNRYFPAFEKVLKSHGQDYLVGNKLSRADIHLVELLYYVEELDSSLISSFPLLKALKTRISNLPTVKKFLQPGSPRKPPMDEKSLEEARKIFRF
# [8] = target: T7, UDP-glucuronosyltransferase 1A9 (Homo sapiens, UniProt O60656); test: Substrate of human UDP-glucuronosyltransferase UGT1A9
# T7 sequence (O60656 whole entry): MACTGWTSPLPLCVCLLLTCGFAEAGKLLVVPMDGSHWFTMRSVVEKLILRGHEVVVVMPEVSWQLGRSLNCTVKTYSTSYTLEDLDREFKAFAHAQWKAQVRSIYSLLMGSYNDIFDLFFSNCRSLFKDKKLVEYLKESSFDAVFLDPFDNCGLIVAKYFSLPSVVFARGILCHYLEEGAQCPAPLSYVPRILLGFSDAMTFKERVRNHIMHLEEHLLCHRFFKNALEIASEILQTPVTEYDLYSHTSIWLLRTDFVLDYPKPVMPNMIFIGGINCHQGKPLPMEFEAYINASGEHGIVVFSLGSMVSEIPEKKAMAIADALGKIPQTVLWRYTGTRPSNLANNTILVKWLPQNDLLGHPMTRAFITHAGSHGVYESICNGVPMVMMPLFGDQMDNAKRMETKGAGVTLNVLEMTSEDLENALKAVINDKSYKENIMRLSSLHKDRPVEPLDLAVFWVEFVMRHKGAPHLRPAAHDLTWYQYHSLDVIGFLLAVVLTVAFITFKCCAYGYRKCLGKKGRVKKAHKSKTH
# [9] = target: T8, UDP-glucuronosyltransferase 1A6 (Homo sapiens, UniProt P19224); test: Substrate of human UDP-glucuronosyltransferase UGT1A6
# T8 sequence (P19224 whole entry): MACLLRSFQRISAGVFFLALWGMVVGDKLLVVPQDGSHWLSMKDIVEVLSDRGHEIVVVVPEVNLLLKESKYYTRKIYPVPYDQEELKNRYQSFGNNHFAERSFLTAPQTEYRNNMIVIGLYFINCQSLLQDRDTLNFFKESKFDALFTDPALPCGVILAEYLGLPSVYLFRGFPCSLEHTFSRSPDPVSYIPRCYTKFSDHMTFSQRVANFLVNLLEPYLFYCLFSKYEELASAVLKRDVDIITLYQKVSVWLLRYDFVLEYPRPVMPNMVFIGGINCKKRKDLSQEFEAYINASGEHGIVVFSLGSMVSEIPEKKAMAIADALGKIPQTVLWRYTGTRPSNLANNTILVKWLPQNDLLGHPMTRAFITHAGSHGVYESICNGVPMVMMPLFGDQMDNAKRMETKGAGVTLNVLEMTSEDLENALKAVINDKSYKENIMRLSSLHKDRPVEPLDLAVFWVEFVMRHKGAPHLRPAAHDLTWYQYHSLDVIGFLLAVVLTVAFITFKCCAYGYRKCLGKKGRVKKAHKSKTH
# [10] = target: T9, UDP-glucuronosyltransferase 2B7 (Homo sapiens, UniProt P16662); test: Substrate of human UDP-glucuronosyltransferase UGT2B7
# T9 sequence (P16662 whole entry): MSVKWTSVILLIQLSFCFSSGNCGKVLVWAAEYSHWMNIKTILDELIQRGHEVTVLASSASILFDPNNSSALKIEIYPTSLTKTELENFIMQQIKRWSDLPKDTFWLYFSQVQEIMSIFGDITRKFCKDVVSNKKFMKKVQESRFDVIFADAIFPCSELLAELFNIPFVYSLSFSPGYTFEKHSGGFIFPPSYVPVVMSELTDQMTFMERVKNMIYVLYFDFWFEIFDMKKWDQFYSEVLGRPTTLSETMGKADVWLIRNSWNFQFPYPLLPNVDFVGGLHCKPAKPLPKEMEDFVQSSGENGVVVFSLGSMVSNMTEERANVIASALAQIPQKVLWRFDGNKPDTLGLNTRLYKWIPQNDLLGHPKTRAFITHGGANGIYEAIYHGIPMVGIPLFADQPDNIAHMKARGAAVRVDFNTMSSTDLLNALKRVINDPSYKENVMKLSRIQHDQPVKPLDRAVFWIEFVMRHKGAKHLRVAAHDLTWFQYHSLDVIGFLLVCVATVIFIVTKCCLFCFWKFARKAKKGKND
# [11] = target: T10, UDP-glucuronosyltransferase 1A8 (Homo sapiens, UniProt Q9HAW9); test: Substrate of human UDP-glucuronosyltransferase UGT1A8
# T10 sequence (Q9HAW9 whole entry): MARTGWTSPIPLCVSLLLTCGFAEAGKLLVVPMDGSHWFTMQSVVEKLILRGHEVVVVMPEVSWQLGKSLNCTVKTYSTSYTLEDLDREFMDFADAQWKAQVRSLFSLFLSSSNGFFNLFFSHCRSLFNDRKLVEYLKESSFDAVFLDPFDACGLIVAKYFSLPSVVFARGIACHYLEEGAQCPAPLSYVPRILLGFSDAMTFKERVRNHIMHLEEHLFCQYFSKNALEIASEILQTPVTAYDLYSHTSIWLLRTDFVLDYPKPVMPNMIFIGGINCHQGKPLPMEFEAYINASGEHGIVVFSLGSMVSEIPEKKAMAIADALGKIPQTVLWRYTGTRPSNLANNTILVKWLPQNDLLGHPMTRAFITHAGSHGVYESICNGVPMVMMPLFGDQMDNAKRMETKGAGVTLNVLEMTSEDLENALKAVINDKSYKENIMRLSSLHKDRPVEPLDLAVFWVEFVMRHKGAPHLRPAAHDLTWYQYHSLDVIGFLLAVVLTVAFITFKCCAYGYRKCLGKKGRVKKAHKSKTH
# [12] = target: T4, Cytochrome P450 2C9; test: Clinically relevant inhibitors of human liver microsomal P450 enzymes, isoform CYP2C9; conditions: microsomes
# [13] = target: Cytochrome P450 2C19 (Homo sapiens, UniProt P33261); test: Clinically relevant substrates of human liver microsomal P450 enzymes, isoform CYP2C19; conditions: microsomes
# Sequence of Cytochrome P450 2C19 (P33261 whole entry, canonical isoform): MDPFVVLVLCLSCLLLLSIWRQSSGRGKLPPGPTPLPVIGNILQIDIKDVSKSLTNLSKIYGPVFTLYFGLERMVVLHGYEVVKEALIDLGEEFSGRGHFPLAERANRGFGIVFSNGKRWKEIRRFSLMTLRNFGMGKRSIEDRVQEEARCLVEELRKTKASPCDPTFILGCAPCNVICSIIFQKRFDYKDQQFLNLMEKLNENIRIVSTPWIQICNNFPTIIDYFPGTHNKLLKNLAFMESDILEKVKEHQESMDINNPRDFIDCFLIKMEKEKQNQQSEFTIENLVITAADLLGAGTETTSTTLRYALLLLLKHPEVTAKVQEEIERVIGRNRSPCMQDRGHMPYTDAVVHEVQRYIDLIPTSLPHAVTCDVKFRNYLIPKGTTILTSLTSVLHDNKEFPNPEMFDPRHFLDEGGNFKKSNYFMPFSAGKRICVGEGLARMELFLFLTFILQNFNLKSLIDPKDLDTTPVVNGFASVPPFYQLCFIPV
# [14] = target: T11, Cytochrome P450 1A2 (Homo sapiens, UniProt P05177); test: Clinically relevant inhibitors of human liver microsomal P450 enzymes, isoform CYP1A2; conditions: microsomes
# T11 sequence (P05177 whole entry): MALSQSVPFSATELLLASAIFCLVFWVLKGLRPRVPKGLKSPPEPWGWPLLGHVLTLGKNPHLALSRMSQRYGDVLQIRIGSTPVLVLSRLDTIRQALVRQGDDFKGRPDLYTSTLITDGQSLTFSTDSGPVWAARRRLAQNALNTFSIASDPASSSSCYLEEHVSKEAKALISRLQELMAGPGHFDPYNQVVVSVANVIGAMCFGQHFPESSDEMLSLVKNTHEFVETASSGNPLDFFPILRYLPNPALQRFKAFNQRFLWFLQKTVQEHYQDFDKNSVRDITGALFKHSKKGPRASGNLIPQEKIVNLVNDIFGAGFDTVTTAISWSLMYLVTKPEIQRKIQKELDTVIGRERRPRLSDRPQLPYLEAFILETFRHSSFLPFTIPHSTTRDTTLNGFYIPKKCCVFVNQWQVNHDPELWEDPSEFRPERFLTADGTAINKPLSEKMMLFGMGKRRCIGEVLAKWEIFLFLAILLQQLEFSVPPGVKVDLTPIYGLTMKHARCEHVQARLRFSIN
# [15] = target: Cytochrome P450 2D6 (Homo sapiens, UniProt P10635); test: Clinically relevant inhibitors of human liver microsomal P450 enzymes, isoform CYP2D6; conditions: microsomes
# Sequence of Cytochrome P450 2D6 (P10635 whole entry, canonical isoform): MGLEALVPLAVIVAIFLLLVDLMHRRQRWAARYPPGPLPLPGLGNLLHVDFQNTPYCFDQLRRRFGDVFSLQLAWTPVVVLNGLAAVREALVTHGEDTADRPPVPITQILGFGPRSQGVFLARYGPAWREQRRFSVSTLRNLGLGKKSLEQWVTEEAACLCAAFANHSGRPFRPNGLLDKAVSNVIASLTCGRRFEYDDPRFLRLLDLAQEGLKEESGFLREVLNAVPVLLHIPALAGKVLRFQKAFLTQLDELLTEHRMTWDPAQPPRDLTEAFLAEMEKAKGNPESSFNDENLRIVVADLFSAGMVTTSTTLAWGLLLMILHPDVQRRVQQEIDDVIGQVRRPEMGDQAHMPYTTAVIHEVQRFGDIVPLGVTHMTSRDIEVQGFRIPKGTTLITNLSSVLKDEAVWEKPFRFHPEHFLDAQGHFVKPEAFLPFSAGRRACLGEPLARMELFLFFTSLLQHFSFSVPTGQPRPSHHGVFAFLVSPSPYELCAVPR
compound,measurement,setting,value
c1ccc(C2CO2)cc1 (centres undefined),Activity,[1],Substrate
O=[N+]([O-])c1ccc(Cl)c(Cl)c1,Activity,[2],Substrate
OC1c2ccc3c(ccc4ccccc43)c2C2OC2C1O (centres undefined),Activity,[1],Substrate
same,Activity,[3],Substrate
NC(CC1=CC(=O)C(=O)C=C1)C(=O)O (centres undefined),Activity,[2],Substrate
CCC(=C(c1ccc(O)cc1)c1ccc(OCCN(C)C)cc1)c1ccccc1,Activity,[4],Substrate
CC(=O)C[C@@H](c1ccccc1)c1c(O)c2ccccc2oc1=O,Activity,[5],Substrate
O=[N+]([O-])c1ccc(OCC2CO2)cc1 (centres undefined),Activity,[6],Substrate
c1ccc([C@H]2O[C@@H]2c2ccccc2)cc1 (relative stereo),Activity,[1],Substrate
O=C1C=C2CCNC2=CC1=O [AMINOCHROME],Activity,[2],Substrate
OC1c2cc3ccc4cccc5ccc(c2C2OC2C1O)c3c45 (centres undefined) [BENZO[A]PYRENE DIOL EPOXIDE],Activity,[1],Substrate
same,Activity,[3],Substrate
same,Activity,[7],Substrate
C=CC1CO1 (centres undefined) [BUTADIENE EPOXIDE],Activity,[6],Substrate
"OC1c2c(ccc3cc4c(ccc5ccccc54)cc23)C2OC2C1O (centres undefined) [DIBENZ[A,H]ANTHRACENE DIOL EPOXIDE]",Activity,[1],Substrate
same,Activity,[7],Substrate
O=C(O)Cc1ccccc1Nc1c(Cl)cccc1Cl [DICLOFENAC],Activity,[5],Substrate
same,Activity,[8],Substrate
same,Activity,[9],Substrate
same,Activity,[10],Substrate
same,Activity,[4],Substrate
CCN(CC)C(=O)/C(C#N)=C/c1cc(O)c(O)c([N+](=O)[O-])c1 [ENTACAPONE],Activity,[8],Substrate
same,Activity,[4],Substrate
same,Activity,[11],Substrate
CNCCC(Oc1ccc(C(F)(F)F)cc1)c1ccccc1 (centres undefined) [FLUOXETINE],Activity,[5],Substrate
same,Activity,[12],Inhibitor
same,Activity,[13],Substrate
CC(C(=O)O)c1ccc(-c2ccccc2)c(F)c1 (centres undefined) [FLURBIPROFEN],Activity,[5],Substrate
COCCCC/C(=N\OCCN)c1ccc(C(F)(F)F)cc1 [FLUVOXAMINE],Activity,[12],Inhibitor
same,Activity,[14],Inhibitor
ClCCl [METHYLENE CHLORIDE],Activity,[6],Substrate
Cc1cccc(C)c1OCC(C)N (centres undefined) [MEXILETINE],Activity,[14],Inhibitor
COCC(=O)O[C@]1(CCN(C)CCCc2nc3ccccc3[nH]2)CCc2cc(F)ccc2[C@@H]1C(C)C [MIBEFRADIL],Activity,[15],Inhibitor
O=C(NCCN1CCOCC1)c1ccc(Cl)cc1 [MOCLOBEMIDE],Activity,[13],Substrate
CCn1cc(C(=O)O)c(=O)c2cc(F)c(N3CCNCC3)cc21 [NORFLOXACIN],Activity,[14],Inhibitor
C1CO1 [OXIRANE],Activity,[6],Substrate
COc1ccnc(C[S+]([O-])c2nc3ccc(OC(F)F)cc3[nH]2)c1OC (centres undefined) [PANTOPRAZOLE],Activity,[13],Substrate
Cc1ccc(C(=O)c2cc(O)c(O)c([N+](=O)[O-])c2)cc1 [TOLCAPONE],Activity,[4],Substrate
CC(c1cc2ccccc2s1)N(O)C(N)=O (centres undefined) [ZILEUTON],Activity,[14],Inhibitor
